US20110263631A1, “COMBINATION OF A SEROTONIN AND NOREPINEPHRINE REUPTAKE INHIBITOR AND AN OPIOID AGONIST FOR THE TREATMENT OF PAIN” (priority 2010, published 2011)

Columns and labels:
rat formalin pain model = assay: Rat formalin model of pain (inhibition of formalin-induced flinching); format: in vivo; settings: for SNRI Dose Response ED50 (Confidence Interval): phase 2A, SNRI IP alone or plus 1 mg/kg morphine SC, 95% CI
rat SERT = molecular target: T1, rat SERT (Rattus norvegicus, UniProt P31652); assay: Ex vivo SERT transporter occupancy ([3H]-citalopram association); format: in vivo; settings: 1.25 h post dose, ± Standard Error; for receptor occupancy at 3 mg/kg: 3 mg/kg IP; for receptor occupancy at 10 mg/kg: 10 mg/kg IP
T1 construct: from tissue; host or cells: rat cortex or lumbar spinal cord homogenate from dosed animals
Description: (§1) To monitor SERT and NET transporter occupancy, an ex vivo occupancy assay was used in which the initial rate of association of a SERT- or NET-selective radioligand, respectively, to the tissue homogenates was monitored. The initial rate of association of radioligand is directly proportional to the level of free (unoccupied) transporter.
Rats were euthanized 1.25 hours post compound administration by decapitation. Following decapitation, the brain was removed and placed on to a clean metal block, on ice. A parasagittal cut was made through the entire brain, around 4 mm lateral to the midline. The lateral cortex pieces were discarded. A midsagittal cut was made through the entire length of the brain. The block of brain corresponding to each hemisphere was then placed on to the respective lateral cut surface, such that the midsagittal surface was uppermost. A single cut was made parallel to, and about 1 mm dorsal to, the corpus callosum to remove a cortex piece, which was frozen on dry ice prior to storage at −80° C. The spinal cord was harvested by hydraulic extrusion with PBS. An 18 gauge needle was inserted into the spinal column near the iliac crest and the buffer injected into the spinal column with the resultant extrusion of the spinal cord, intact. The lumbar spinal cord (approximately 1-1.5 cm in length) was rapidly dissected and frozen on dry ice prior to storage at −80° C.
The frozen tissue pieces were weighed and kept on dry ice prior to homogenization. […]
(§2) Total and non-specific binding was determined at a single concentration of radioligand (in parentheses): [^3H]-citalopram (3 nM) and [^3H]-nisoxetine (5 nM) at SERT and NET, respectively. […] Filter plates were washed six times with wash buffer (ice-cold 50 mM Tris-HCl, 0.9% NaCl, at 4° C.) to remove unbound radioactivity. Plates were dried, 35-45 μL Microscint-20 liquid scintillation fluid (Packard BioScience Co., Meriden, Conn.) was added to each well, and plates were counted in a Packard Topcount liquid scintillation counter (Packard BioScience Co., Meriden, Conn.).
Specific binding was calculated using total (in the absence of test compound) and non-specific (determined as described above) binding from the same plate as follows: specific binding=value−non-specific binding. Data then were analyzed by linear regression analysis with the GraphPad Prism Software package (GraphPad Software, Inc., San Diego, Calif.). The initial rates of association of [^3H]-citalopram or [^3H]-nisoxetine, equal to the slope of the straight line, were determined by fitting data points, specific binding (cpm) versus time (min). The average of the initial rates of [^3H]-citalopram or [^3H]-nisoxetine association from vehicle-dosed animals was calculated. […]

[1] = Pharmacokinetic studies: plasma concentrations alone or in combination; settings: rat; for Plasma concentrations of SNRI alone versus in combination with morphine: compound 1 3 mg/kg, duloxetine 10 mg/kg or atomoxetine 10 mg/kg IP, morphine 3 mg/kg SC or vehicle SC
rat NET = molecular target: T2, rat NET (Rattus norvegicus, UniProt Q63380); assay: Ex vivo NET transporter occupancy ([3H]-nisoxetine association); format: in vivo; settings: lumbar spinal cord, 1.25 h post dose, ± Standard Error
T2 construct: from tissue; host or cells: rat cortex or lumbar spinal cord homogenate from dosed animals
Excerpt: as §1
The spinal cord was harvested by hydraulic extrusion with PBS. An 18 gauge needle was inserted into the spinal column near the iliac crest and the buffer injected into the spinal column with the resultant extrusion of the spinal cord, intact. […]
as §2
Specific binding was calculated using total (in the absence of test compound) and non-specific (determined as described above) binding from the same plate as follows: specific binding=value−non-specific binding. […]

NET [2] = molecular target: NET (Rattus norvegicus, UniProt Q63380); assay: 3H-NE uptake assay in rat brain synaptosomal preparations; settings: Rat brain synaptosomes, 3H-NE uptake
Excerpt: (§3) Neurotransmitter uptake assays were used to measure inhibition of ^3H-serotonin (^3H-5-HT) and ^3H-norepinephrine (^3H-NE) uptake into cells expressing the respective human recombinant transporter (hSERT or hNET) and into rat brain synaptosomal preparations in order to determine the pIC50 values of test compounds at the human and rat monoamine transporters, respectively.
(§4) Rats were euthanized by decapitation. Rat freshly dissected cortical tissue pieces were suspended in ice-cold Sucrose Buffer at a ratio of 100 mg wet weight of tissue per 1 mL of buffer. The tissues were homogenized using a pre-chilled glass dounce homogenizer for 20 strokes. The homogenate was centrifuged at 1,000×g (10 min at 4° C.). The pellet was discarded and the resulting supernatant was centrifuged at 10,000×g (20 min at 4° C.) to obtain the crude synaptosomal pellet. Synaptosomes were resuspended in Sucrose Buffer and the protein concentration was determined by the method of Bradford (Bradford (1976) Analytical Biochemistry 72:24854) and used immediately following preparation.
(§5) Neurotransmitter uptake assays were performed in a 96-well assay plate in a total volume of 400 μg containing 1.5×10^4 and 2.5×10^4 cells, for SERT and NET, respectively or 10 μg cortical synaptosomal protein in assay buffer (Krebs-Ringer bicarbonate buffer containing HEPES (10 mM), CaCl2 (2.2 mM), ascorbic acid (200 μM) and pargyline (200 μM), pH 7.4). […]
(§6) Following a 10 minute incubation for cells (6 minute incubation for rat synaptosomes) at 37° C. with radioligand, the reactions were terminated by rapid filtration over a 96-well UniFilter GF/B plate, pretreated with 1% BSA, and washed 6 times with 650 μl wash buffer (ice cold PBS). Plates were dried, 35-45 μl of MicroScint™-20 (Perkin Elmer) added and incorporated radioactivity quantitated via liquid scintillation counting. Inhibition curves were analyzed using the GraphPad Prism Software package (GraphPad Software, Inc., San Diego, Calif.).

NET [3] = assay: as above
Excerpt: as §3, §4, §5, §6

SERT = SERT (Rattus norvegicus, UniProt P31652); assay: 3H-5-HT uptake assay in rat brain synaptosomal preparations
Excerpt: as §3
Rats were euthanized by decapitation. Rat freshly dissected cortical tissue pieces were suspended in ice-cold Sucrose Buffer at a ratio of 100 mg wet weight of tissue per 1 mL of buffer. The tissues were homogenized using a pre-chilled glass dounce homogenizer for 20 strokes. The homogenate was centrifuged at 1,000×g (10 min at 4° C.). […] Synaptosomes were resuspended in Sucrose Buffer and the protein concentration was determined by the method of Bradford (Bradford (1976) Analytical Biochemistry 72:24854) and used immediately following preparation. […]
Following a 10 minute incubation for cells (6 minute incubation for rat synaptosomes) at 37° C. with radioligand, the reactions were terminated by rapid filtration over a 96-well UniFilter GF/B plate, pretreated with 1% BSA, and washed 6 times with 650 μl wash buffer (ice cold PBS). Plates were dried, 35-45 μl of MicroScint™-20 (Perkin Elmer) added and incorporated radioactivity quantitated via liquid scintillation counting. […]

hNET = hNET (Homo sapiens, UniProt P23975); assay: 3H-NE neurotransmitter uptake assay in HEK-293 cells expressing hNET
Description: as §3
HEK-293 derived cell lines stably-transfected with hSERT or, hNET, respectively, were grown in Dulbecco's modified Eagles Medium (DMEM) supplemented with 10% dialyzed FBS (for hSERT) or FBS (for hNET), 100 μg/ml penicillin, 100 μg/ml streptomycin, 2 mM L-glutamine and 250 μg/ml of the aminoglycoside antibiotic G418 in a 5% CO2 humidified incubator at 37° C. When cultures reached 50-80% confluence, the cells were washed thoroughly in PBS (without Ca^2+ and Mg^2+) and lifted with 5 mM EDTA in PBS. Cells were harvested by centrifugation at 1100 rpm for 5 minutes, the supernatant was discarded, and the cell pellet resuspended, by gentle trituration, in room temperature Krebs-Ringer bicarbonate buffer containing HEPES (10 mM), CaCl2 (2.2 mM), ascorbic acid (200 μM) and pargyline (200 μM), pH 7.4. The final concentration of cells in the cell suspension was 7.5×10^4 cells/ml for hSERT and 12.5×10^4 cells/ml for hNET. […]
as §6

hSERT = hSERT (Homo sapiens, UniProt P31645); assay: 3H-5-HT neurotransmitter uptake assay in HEK-293 cells expressing hSERT
hSERT, sequence (P31645 whole entry): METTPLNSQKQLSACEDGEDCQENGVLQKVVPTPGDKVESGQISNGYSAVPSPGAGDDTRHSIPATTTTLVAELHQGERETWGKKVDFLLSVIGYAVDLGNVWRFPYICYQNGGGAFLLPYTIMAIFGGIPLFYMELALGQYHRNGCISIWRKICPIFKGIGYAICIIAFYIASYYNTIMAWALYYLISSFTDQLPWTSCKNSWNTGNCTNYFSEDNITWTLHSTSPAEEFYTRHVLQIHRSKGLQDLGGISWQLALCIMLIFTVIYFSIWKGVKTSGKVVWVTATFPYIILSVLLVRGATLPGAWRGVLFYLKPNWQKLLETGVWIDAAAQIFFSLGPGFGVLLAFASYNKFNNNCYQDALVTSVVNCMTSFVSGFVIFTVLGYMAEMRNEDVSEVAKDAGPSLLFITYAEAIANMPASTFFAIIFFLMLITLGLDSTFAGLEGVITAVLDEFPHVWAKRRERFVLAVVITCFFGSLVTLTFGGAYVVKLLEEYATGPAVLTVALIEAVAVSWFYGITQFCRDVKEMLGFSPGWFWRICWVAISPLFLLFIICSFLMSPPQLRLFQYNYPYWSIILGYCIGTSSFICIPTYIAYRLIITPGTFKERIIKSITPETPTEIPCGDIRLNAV
Description: as §3
HEK-293 derived cell lines stably-transfected with hSERT or, hNET, respectively, were grown in Dulbecco's modified Eagles Medium (DMEM) supplemented with 10% dialyzed FBS (for hSERT) or FBS (for hNET), 100 μg/ml penicillin, 100 μg/ml streptomycin, 2 mM L-glutamine and 250 μg/ml of the aminoglycoside antibiotic G418 in a 5% CO2 humidified incubator at 37° C. […]
as §6

T1 sequence (P31652 whole entry): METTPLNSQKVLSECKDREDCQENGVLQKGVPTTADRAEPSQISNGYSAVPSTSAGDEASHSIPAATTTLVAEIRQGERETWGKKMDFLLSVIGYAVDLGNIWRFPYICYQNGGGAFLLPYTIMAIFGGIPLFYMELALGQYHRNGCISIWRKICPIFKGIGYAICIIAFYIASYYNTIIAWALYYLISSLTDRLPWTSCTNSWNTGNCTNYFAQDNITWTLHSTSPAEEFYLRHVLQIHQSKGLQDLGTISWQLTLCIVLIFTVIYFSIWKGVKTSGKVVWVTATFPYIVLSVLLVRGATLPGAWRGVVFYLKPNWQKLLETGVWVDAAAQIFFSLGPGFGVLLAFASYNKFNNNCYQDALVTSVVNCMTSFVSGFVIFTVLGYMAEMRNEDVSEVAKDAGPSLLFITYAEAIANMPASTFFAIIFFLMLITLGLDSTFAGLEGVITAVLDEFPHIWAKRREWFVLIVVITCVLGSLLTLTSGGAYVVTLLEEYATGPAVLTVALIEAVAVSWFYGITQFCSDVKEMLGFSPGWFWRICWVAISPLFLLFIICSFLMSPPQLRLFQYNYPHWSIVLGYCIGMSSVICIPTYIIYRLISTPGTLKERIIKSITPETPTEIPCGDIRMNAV
hNET, sequence (P23975 whole entry): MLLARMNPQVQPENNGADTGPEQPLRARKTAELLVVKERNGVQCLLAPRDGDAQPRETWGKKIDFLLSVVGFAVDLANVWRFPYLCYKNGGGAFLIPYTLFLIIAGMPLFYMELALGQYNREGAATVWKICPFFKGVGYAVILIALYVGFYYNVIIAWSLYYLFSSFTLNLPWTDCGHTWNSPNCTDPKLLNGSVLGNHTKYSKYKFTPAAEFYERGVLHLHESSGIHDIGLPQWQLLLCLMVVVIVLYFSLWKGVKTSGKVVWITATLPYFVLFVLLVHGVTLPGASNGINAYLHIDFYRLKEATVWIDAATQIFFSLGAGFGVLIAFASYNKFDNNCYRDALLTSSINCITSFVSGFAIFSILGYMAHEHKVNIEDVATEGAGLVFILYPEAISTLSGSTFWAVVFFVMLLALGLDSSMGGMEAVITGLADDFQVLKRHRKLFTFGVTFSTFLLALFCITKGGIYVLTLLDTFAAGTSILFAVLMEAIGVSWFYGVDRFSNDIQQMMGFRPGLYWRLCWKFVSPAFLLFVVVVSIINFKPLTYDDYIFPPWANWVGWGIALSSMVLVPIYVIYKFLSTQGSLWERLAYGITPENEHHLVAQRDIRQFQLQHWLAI
T2 sequence (Q63380 1-617): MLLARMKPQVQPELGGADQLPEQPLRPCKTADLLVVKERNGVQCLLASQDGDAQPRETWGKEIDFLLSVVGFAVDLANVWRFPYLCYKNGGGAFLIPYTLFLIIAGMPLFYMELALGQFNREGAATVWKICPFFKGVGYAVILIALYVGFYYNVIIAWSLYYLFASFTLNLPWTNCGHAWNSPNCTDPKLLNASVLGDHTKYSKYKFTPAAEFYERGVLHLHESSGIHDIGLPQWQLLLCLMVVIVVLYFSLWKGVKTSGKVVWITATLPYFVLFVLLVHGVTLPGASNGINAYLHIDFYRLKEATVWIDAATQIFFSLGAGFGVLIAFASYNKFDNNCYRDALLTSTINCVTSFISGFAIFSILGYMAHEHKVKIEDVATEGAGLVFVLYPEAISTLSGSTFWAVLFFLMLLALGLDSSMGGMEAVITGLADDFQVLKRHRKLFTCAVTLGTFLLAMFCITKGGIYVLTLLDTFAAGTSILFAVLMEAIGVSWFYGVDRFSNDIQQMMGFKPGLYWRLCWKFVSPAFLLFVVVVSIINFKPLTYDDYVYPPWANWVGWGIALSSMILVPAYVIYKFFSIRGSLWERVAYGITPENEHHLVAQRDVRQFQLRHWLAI
NET (Rattus norvegicus, UniProt Q63380), sequence (Q63380 1-617): as above
SERT, sequence (P31652 whole entry): as the sequence (P31652 whole entry) above

## CNCC[C@@H](Oc1ccccc1C)c1ccccc1 [Atomoxetine, atomoxetine, reference compound]
Rat formalin pain model; rat formalin model
  SNRI Dose Response ED50 (Confidence Interval): 24.4 (14.5-41.1) (n = 6-12) mg/kg
Rat SERT; cortex
  receptor occupancy at 3 mg/kg: 35 ± 9%
  receptor occupancy at 10 mg/kg: 64 ± 5%
[1]
  Plasma concentrations of SNRI alone versus in combination with morphine: equivalent

## Fc1cc(F)c(OCc2ccccc2C2CCNCC2)c(F)c1 [Compound 1, 4-[2-(2,4,6-trifluoro-phenoxymethyl)-phenyl]-piperidine]
Rat formalin pain model; Rattus norvegicus, single administration of 10 mg/kg compound 1 IP, mean±SEM, read-out: inhibition of flinching behavior
  inhibition at 10 mg/kg: 20 ± 7%
Rat formalin pain model; first 10 minutes post formalin injection (acute pain processing)
  pain behavior during phase 1: Decreases in pain behavior were also observed
Rat formalin pain model; rat formalin model
  SNRI Dose Response ED50 (Confidence Interval): 20.0 (14.0-28.4) mg/kg
Rat formalin pain model; rat formalin model, 3 mg/kg IP compound 1 plus morphine SC, 3 mg/kg
  interaction with morphine (shift of morphine dose response curve): failed to significantly shift the morphine dose response curve
Rat formalin pain model; rat formalin model, 10 mg/kg IP compound 1 plus oxycodone SC
  interaction with oxycodone (ED50 shift, isobolographic analysis): synergistic interaction
Rat formalin pain model; rat formalin model, compound 1 or atomoxetine 10 mg/kg IP, duloxetine 3, 5 or 10 mg/kg IP, morphine SC
  interaction with morphine (ED50 shift, isobolographic analysis): synergistic interaction
Rat SERT; lumbar spinal cord
  receptor occupancy at 3 mg/kg: 23 ± 14%
  receptor occupancy at 10 mg/kg: 46 ± 20%
Rat NET; 3 mg/kg IP
  receptor occupancy at 3 mg/kg: 77 ± 15%
Rat NET; 10 mg/kg IP
  receptor occupancy at 10 mg/kg: 81 ± 6%
NET [2]
  NET pIC50: 8.9
NET [3]; Rat brain synaptosomes, 10**(NET pIC50 − SERT pIC50)
  NET selectivity: 10
NET [3]; rat brain synaptosomal preparations
  selectivity for NET (ratio of SERT to NET IC50 values): about 10 fold
SERT
  IC50: 12.6 nM
hNET
  IC50: 2.51 nM
  NET selectivity: 4
hNET; human recombinant cell-based assay
  selectivity for NET (ratio of SERT to NET IC50 values): about 4 fold
[1]
  Plasma concentrations of SNRI alone versus in combination with morphine: equivalent
hSERT
  IC50: 10 nM

## CNCC[C@H](Oc1cccc2ccccc12)c1cccs1 [Duloxetine, duloxetine, reference compound]
Rat formalin pain model; duloxetine 5 mg/kg IP co-administered with ondansetron 3 mg/kg IP, with morphine 1 mg/kg SC
  morphine sparing effect: a morphine sparing effect was observed
Rat formalin pain model; single administration of 10 mg/kg duloxetine
  inhibition of flinching behavior (in words): significant inhibition of flinching behavior

## CN1CC[C@]23c4c5ccc(O)c4O[C@H]2[C@@H](O)C=C[C@H]3[C@H]1C5 [Morphine, morphine, reference compound]
Rat formalin pain model; Rattus norvegicus, sc, read-out: inhibition of flinching behavior
  inhibition at 1 mg/kg: 13 ± 11%

## COc1ccc2c3c1O[C@H]1C(=O)CC[C@@]4(O)[C@@H](C2)N(C)CC[C@]314 [Oxycodone, oxycodone]
[1]; compound 1 10 mg/kg IP, oxycodone 3 mg/kg SC
  Plasma concentrations alone versus combination of compound 1 and oxycodone: equivalent
